Data set [1] has as its system Mycolicibacterium vaccae. Kind of data set: Antimycobacterial activity against Mycobacterium vaccae (JMRC:STI:10670) assessed as reduction in bacterial growth incubated for 42 hrs by serial dilution method. Type of data set: functional.
Data set [2] is described as follows: Cytotoxicity against human HeLa cells assessed as reduction in cell viability incubated for 72 hrs by methylene blue staining based colorimetric assay. Type of data set: toxicity.
[3] abbreviates: Mycolicibacterium vaccae, JMRC:STI:10670, read-out: MIC.

Converted amounts (≈) assume the structure as drawn. Some results are limits rather than exact numbers.

Take `O=c1nc(Nc2ccc(CCO)cc2)sc2c([N+](=O)[O-])cc(C(F)(F)F)cc12`: in data set [1] (setting [3]), the MIC (usually the lowest concentration that inhibits growth of the organism) amounted to 15.2 µM (≈ 6.25 µg/mL).

On to `Cc1nnc2n1CCN(c1nc(=O)c3cc(C(F)(F)F)cc([N+](=O)[O-])c3s1)C2`, for which, in data set [1] (setting [3]), the MIC came to 3.78 µM (≈ 1.56 µg/mL).

Take `O=C(CN1CCN(c2nc(=O)c3cc(C(F)(F)F)cc([N+](=O)[O-])c3s2)CC1)N1CCCC1`: the MIC in data set [1] (setting [3]) was 0.0658 µM (≈ 0.031 µg/mL). In data set [2], the CC50 (commonly the concentration at which the toxic effect on the cells reaches its halfway point) at 72 h is > 106 µM.

In the case of `CN(CC1(CO)CCCC1)c1nc(=O)c2cc(C(F)(F)F)cc([N+](=O)[O-])c2s1`, the MIC in data set [1] (setting [3]) was determined as 0.0599 µM (≈ 0.025 µg/mL). Besides, the CC50 at 72 h in data set [2] is > 120 µM.

In the case of `O=c1nc(N2CC[C@@](O)(c3ccccc3)[C@H](O)C2)sc2c([N+](=O)[O-])cc(C(F)(F)F)cc12`, in data set [1] (setting [3]), the MIC is 0.0535 µM (≈ 0.025 µg/mL). Besides, in data set [2], the CC50 at 72 h was 68.5 µM.

Take `CN(c1ccc(CN)cc1)c1nc(=O)c2cc(C(F)(F)F)cc([N+](=O)[O-])c2s1`: the MIC in data set [1] (setting [3]) is 3.8 µM (≈ 1.56 µg/mL).

As for `O=c1nc(N2Cc3[nH]nc(-c4ccccc4)c3C2)sc2c([N+](=O)[O-])cc(C(F)(F)F)cc12`, the MIC in data set [1] (setting [3]) turned out to be 13.6 µM (≈ 6.25 µg/mL).

With `O=c1nc(N2CCC(CO)CC2)sc2c([N+](=O)[O-])cc(C(F)(F)F)cc12`, the MIC in data set [1] (setting [3]) came out at 2 µM (≈ 0.779 µg/mL).

Consider `O=C(CN1CCN(c2nc(=O)c3cc(C(F)(F)F)cc([N+](=O)[O-])c3s2)CC1)Nc1ccccn1`, for which the MIC in data set [1] (setting [3]) was 0.0506 µM (≈ 0.025 µg/mL). For the same compound, in data set [2], the CC50 at 72 h was 44.5 µM.

In the case of `CN(c1ccc(CO)cc1)c1nc(=O)c2cc(C(F)(F)F)cc([N+](=O)[O-])c2s1`, the MIC in data set [1] (setting [3]) was determined as 30.4 µM (≈ 12.5 µg/mL).

For the compound `O=C(CN1CCN(c2nc(=O)c3cc(C(F)(F)F)cc([N+](=O)[O-])c3s2)CC1)N1CCOCC1`, the MIC in data set [1] (setting [3]) is 0.205 µM (≈ 0.0999 µg/mL).

In the case of `CN1CCN(c2nc(=O)c3cc(C(F)(F)F)cc([N+](=O)[O-])c3s2)CC1`, the MIC in data set [1] (setting [3]) came to 0.267 µM (≈ 0.0999 µg/mL).

Regarding `O=c1nc(N2CCc3[nH]nc(-c4ccccc4)c3C2)sc2c([N+](=O)[O-])cc(C(F)(F)F)cc12`, the MIC in data set [1] is 6.6 10^3nM.

On to `CN(c1ccc(CCO)cc1)c1nc(=O)c2cc(C(F)(F)F)cc([N+](=O)[O-])c2s1`, for which the MIC in data set [1] (setting [3]) is 7.33 µM (≈ 3.12 µg/mL).

As to `O=c1nc(N2CC[C@@](O)(COc3ccc(F)cc3)[C@H](O)C2)sc2c([N+](=O)[O-])cc(C(F)(F)F)cc12`, the MIC in data set [1] (setting [3]) turned out to be 0.0485 µM (≈ 0.025 µg/mL). Besides, the CC50 at 72 h in data set [2] was 18.4 µM.

Turning to `O=c1nc(N2CCn3cc(C(F)(F)F)nc3C2)sc2c([N+](=O)[O-])cc(C(F)(F)F)cc12`, the MIC in data set [1] (setting [3]) came to 0.0838 µM (≈ 0.039 µg/mL). For the same compound, in data set [2], the CC50 at 72 h was > 107 µM.

Take `O=c1nc(N2CCn3cc(-c4ccc(F)c(F)c4)nc3C2)sc2c([N+](=O)[O-])cc(C(F)(F)F)cc12`: in data set [1] (setting [3]), the MIC was 0.0491 µM (≈ 0.025 µg/mL).

`CC(C)n1c(-c2ccccc2)nc2c1CN(c1nc(=O)c3cc(C(F)(F)F)cc([N+](=O)[O-])c3s1)C2`: the MIC in data set [1] (setting [3]) is 0.798 µM (≈ 0.4 µg/mL).

Turning to `O=c1nc(N2Cc3ccccc3[C@H](CO)C2)sc2c([N+](=O)[O-])cc(C(F)(F)F)cc12`, in data set [1] (setting [3]), the MIC amounted to 0.0286 µM (≈ 0.0125 µg/mL). In addition, in data set [2], the CC50 at 72 h is 86.4 µM.

As to `O=C(O)c1ccccc1N1CCN(c2nc(=O)c3cc(C(F)(F)F)cc([N+](=O)[O-])c3s2)CC1`, the MIC in data set [1] (setting [3]) is 6.49 µM (≈ 3.12 µg/mL).

In the case of `O=c1nc(Nc2ccc(CO)cc2)sc2c([N+](=O)[O-])cc(C(F)(F)F)cc12`, the MIC in data set [1] is 16 10^3nM.

As to `O=c1nc(N2CCn3cc(-c4ccc(F)cc4F)nc3C2)sc2c([N+](=O)[O-])cc(C(F)(F)F)cc12`, the MIC in data set [1] (setting [3]) was determined as 0.196 µM (≈ 0.0998 µg/mL).

`O=c1nc(N2CCc3[nH]c(-c4ccccc4)nc3C2)sc2c([N+](=O)[O-])cc(C(F)(F)F)cc12`: the minimal inhibitory concentration (MIC) in data set [1] (setting [3]) stood at 52.8 µM (≈ 25 µg/mL).

With `CC(=O)c1ccc(N2CCN(c3nc(=O)c4cc(C(F)(F)F)cc([N+](=O)[O-])c4s3)CC2)cc1`, in data set [1] (setting [3]), the MIC was 0.13 µM (≈ 0.0622 µg/mL). Also, the 50% cytotoxic concentration (CC50) at 72 h in data set [2] was > 105 µM.

On to `COc1cc(OC)cc(N2CCN(c3nc(=O)c4cc(C(F)(F)F)cc([N+](=O)[O-])c4s3)CC2)c1`, for which the MIC in data set [1] (setting [3]) came to 0.0624 µM (≈ 0.031 µg/mL). The CC50 at 72 h in data set [2] was > 101 µM.

For the compound `O=c1nc(N2CCc3nc(-c4ccccc4)ncc3C2)sc2c([N+](=O)[O-])cc(C(F)(F)F)cc12`, in data set [1], the MIC is 26 10^3nM.

For `O=C(O)[C@@H]1CN(c2nc(=O)c3cc(C(F)(F)F)cc([N+](=O)[O-])c3s2)Cc2ccccc21`, the MIC in data set [1] is 3.5 10^3nM.

In the case of `O=c1nc(N2CCN(CC(F)(F)c3ccc(OC(F)(F)F)cc3)CC2)sc2c([N+](=O)[O-])cc(C(F)(F)F)cc12`, in data set [1] (setting [3]), the MIC was 0.0027 µM (≈ 0.00158 µg/mL). Further, the CC50 at 72 h in data set [2] is > 86 µM.

On to `O=c1nc(N2CC[C@@](O)(c3ccc(F)cc3)[C@H](O)C2)sc2c([N+](=O)[O-])cc(C(F)(F)F)cc12`, for which, in data set [1] (setting [3]), the MIC came to 0.0515 µM (≈ 0.025 µg/mL). Besides, the CC50 at 72 h in data set [2] amounted to 66.1 µM.

As for `COc1cc2c(cc1OC)[C@@H](C[C@@H](O)c1ccccc1)N(c1nc(=O)c3cc(C(F)(F)F)cc([N+](=O)[O-])c3s1)CC2`, in data set [1] (setting [3]), the MIC is 0.0425 µM (≈ 0.025 µg/mL). The CC50 at 72 h in data set [2] is > 85 µM.

For `CN(CCCO)c1nc(=O)c2cc(C(F)(F)F)cc([N+](=O)[O-])c2s1`, the MIC in data set [1] (setting [3]) was 0.0716 µM (≈ 0.026 µg/mL). Moreover, the CC50 at 72 h in data set [2] came out at 103 µM.

With `CN1CCN(C(=O)CCCC(=O)N2CCN(c3nc(=O)c4cc(C(F)(F)F)cc([N+](=O)[O-])c4s3)CC2)CC1`, the MIC in data set [1] (setting [3]) worked out at 11.2 µM (≈ 6.23 µg/mL).

Turning to `O=c1nc(N2CCn3c(nnc3-c3ccccc3)C2)sc2c([N+](=O)[O-])cc(C(F)(F)F)cc12`, the MIC in data set [1] (setting [3]) was found to be 0.0527 µM (≈ 0.025 µg/mL).

(Values after ChEMBL document CHEMBL5154901, “Development of Predictive Classification Models for Whole Cell Antimycobacterial Activity of Benzothiazinones” (J Med Chem, 2022).)
